Data taken from US20230279001A1, “IMIDAZO[1,2-A]PYRIDINE COMPOUNDS FOR THE TREATMENT OF AUTOIMMUNE DISEASE” (Hoffmann-La Roche Inc., priority 2020, published 2023).

Experiments:
TLR7 and TLR8 = assay: Human PBMC cell-based assay, TLR7 and TLR8; details: R848 at 1 μg/mL, overnight, cytokine readout, read-out: hPBMC/TLR78 IC50
Excerpt: Unlike the HEK reporter cell lines, human peripheral blood mononuclear cell (PBMC) represents primary human immune cells in blood mainly consisting of lymphocytes, monocytes, and dendritic cells. These cells express TLR7, TLR8, or TLR9, and therefore are natural responders to respective ligand stimulation. Upon activation of these TLRs, PBMCs secrete similar cytokines and chemokines in vitro and in vivo, and therefore the in vitro potency of a TLR7/8/9 antagonist in human PBMC is readily translatable to its pharmacodynamics response in vivo.
Human peripheral blood mononuclear cells (PBMC) were isolated from freshly-drawn lithium-heparinized (Lithium Heparin Plus blood Collection tube, BD Vacutainer®) healthy donor whole blood by density gradient (Ficoll-Paque™ PLUS, GE Healthcare life Sciences). Briefly, 50 mL of blood was diluted with 25 mL PBS (without Ca^2+, Mg^2+) in a 50 mL conical tube with porous barrier (Leucosep tube, Greiner bio-one), where 15.5 mL Ficoll-Paque was under laid after spinning. Tubes were centrifuged for 20 minutes at 800×g (1946 rpm) with the brake in the off position, and PBMC were collected from the buffy coat. Cells were then washed twice in PBS, and red blood cells were lysed by suspension in 2 mL (Red Blood Cell Lysis Buffer, Alfa Aesar) for 5-10 minutes at room temperature. After a final wash in PBS, PBMC were resuspended at a final concentration of 2×10^6 cells/mL in RPMI-1640 media with GlutaMAX™ (Gibco) supplemented with 10% Fetal Bovine Serum (Sigma) and plated at 150 μL/well (3×10^5 cells/well) in tissue culture treated round bottom 96-well plates (Corning Incorporated). Antagonist compounds (compounds of this invention) solubilized and serial diluted in 100% DMSO were added in duplicate to cells to yield a final concentration of 1% DMSO (v/v). […] Cell culture supernatants were collected, and levels of various human cytokines were assessed by Luminex assay (ProcartaPlex™ Multiplex Immunoassay, Invitrogen) or ELISA procedure according to the manufacturer's recommended protocol (eBioscience, ThermoFisher Scientific). […]

hERG channel = hERG channel (Homo sapiens (Human), UniProt Q12809); assay: hERG channel inhibition assay (patch-clamp, CHO cells); format: cell-based; details: for IC50 / IC20: CHO hERG cells, whole-cell patch-clamp; for IC20: human, CHO cells stably expressing hERG channels; for hERG IC20/TLR7 IC50 / hERG IC20/TLR8 IC50 / hERG IC20/TLR9 IC50: safety ratio
Experimental: The hERG K^+ channels were cloned in humans and stably expressed in a CHO (Chinese hamster ovary) cell line. CHOhERG cells were used for patch-clamp (voltage-clamp, whole-cell) experiments. Cells were stimulated by a voltage pattern to activate hERG channels and conduct IKhERG currents (rapid delayed outward rectifier potassium current of the hERG channel). After the cells were stabilized for a few minutes, the amplitude and kinetics of IKhERG were recorded at a stimulation frequency of 0.1 Hz (6 bpm). Thereafter, the test compound was added to the preparation at increasing concentrations. For each concentration, an attempt was made to reach a steady-state effect, usually, this was achieved within 3-10 min at which time the next highest concentration was applied. The amplitude and kinetics of IKhERG are recorded in each concentration of the drug which were compared to the control values (taken as 100%). (references: Redfern W S, Carlsson L, Davis A S, Lynch W G, MacKenzie I, Palethorpe S, Siegl P K, Strang I, Sullivan A T, Wallis R, Camm A J, Hammond T G. 2003; Relationships between preclinical cardiac electrophysiology, clinical QT interval prolongation and torsade de pointes for a broad range of drugs: evidence for a provisional safety margin in drug development. Cardiovasc. Res. 58:32-45, Sanguinetti M C, Tristani-Firouzi M. 2006; hERG potassium channels and cardiac arrhythmia. Nature 440:463-469, Webster R, Leishman D, Walker D. 2002; Towards a drug concentration effect relationship for QT prolongation and torsades de pointes. Curr. Opin. Drug Discov. Devel. 5:116-26).

hERG channel, sequence (Q12809 whole entry): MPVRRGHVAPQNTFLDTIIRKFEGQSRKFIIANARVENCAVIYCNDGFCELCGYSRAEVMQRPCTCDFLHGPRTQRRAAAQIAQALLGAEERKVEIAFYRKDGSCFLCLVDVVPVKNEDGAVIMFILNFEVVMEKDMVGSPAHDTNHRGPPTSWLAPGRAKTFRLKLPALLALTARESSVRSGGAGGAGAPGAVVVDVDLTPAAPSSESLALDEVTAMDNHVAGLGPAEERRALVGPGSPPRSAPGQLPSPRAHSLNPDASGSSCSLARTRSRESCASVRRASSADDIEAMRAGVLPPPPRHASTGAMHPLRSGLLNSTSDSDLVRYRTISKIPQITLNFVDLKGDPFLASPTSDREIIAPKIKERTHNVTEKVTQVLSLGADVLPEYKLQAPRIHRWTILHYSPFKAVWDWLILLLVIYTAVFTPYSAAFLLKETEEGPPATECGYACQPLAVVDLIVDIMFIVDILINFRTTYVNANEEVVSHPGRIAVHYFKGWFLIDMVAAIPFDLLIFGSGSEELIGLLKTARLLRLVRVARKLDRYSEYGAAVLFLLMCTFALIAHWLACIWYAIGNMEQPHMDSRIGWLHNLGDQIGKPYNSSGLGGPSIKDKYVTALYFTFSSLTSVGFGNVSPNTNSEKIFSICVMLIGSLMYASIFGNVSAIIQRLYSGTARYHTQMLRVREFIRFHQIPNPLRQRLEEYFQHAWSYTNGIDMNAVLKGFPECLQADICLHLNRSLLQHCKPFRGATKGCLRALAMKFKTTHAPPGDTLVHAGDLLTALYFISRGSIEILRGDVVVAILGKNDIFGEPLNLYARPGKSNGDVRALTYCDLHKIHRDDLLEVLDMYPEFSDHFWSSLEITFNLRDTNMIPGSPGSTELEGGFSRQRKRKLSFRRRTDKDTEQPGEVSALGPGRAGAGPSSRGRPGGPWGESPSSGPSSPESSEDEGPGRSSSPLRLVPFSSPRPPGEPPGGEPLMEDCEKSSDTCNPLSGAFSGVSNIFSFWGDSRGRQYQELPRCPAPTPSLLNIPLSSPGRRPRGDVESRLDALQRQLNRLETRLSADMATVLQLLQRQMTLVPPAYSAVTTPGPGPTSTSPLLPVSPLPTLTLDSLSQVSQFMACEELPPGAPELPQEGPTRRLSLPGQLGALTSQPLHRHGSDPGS

Row | Compound | IC50 (TLR7 and TLR8) [nM] | IC50 (hERG channel) [µM] | IC20 (hERG channel) [µM] | hERG IC20/TLR7 IC50 (hERG channel) | hERG IC20/TLR8 IC50 (hERG channel) | hERG IC20/TLR9 IC50 (hERG channel)
1 | Cc1cc(-c2cc(C)c3nccn3c2)cnc1N1CCC(N2CCN(C)CC2)CC1 [Example 9, 8-methyl-6-[5-methyl-6-[4-(4-methylpiperazin-1-yl)-1-piperidyl]-3-pyridyl]imidazo[1,2-a]pyridine] | 8 |  |  |  |  | 
2 | CCc1nc(N2CCC(N3C[C@@H](N)[C@H](OC)C3)CC2)ccc1-c1cc(C)c2nccn2c1 [Example 15, (3R,4R)-1-[1-[6-ethyl-5-(8-methylimidazo[1,2-a]pyridin-6-yl)-2-pyridyl]-4-piperidyl]-4-methoxy-pyrrolidin-3-amine] |  | > 20 | 8.36 | 2144.2 | 2090 | 38.7
3 | CCc1nc(N2CCC(C)(N)CC2)ccc1-c1cc(C)c2nc(C)cn2c1 [Example 20, 1-[5-(2,8-dimethylimidazo[1,2-a]pyridin-6-yl)-6-ethyl-2-pyridyl]-4-methyl-piperidin-4-amine] |  | > 20 | > 10 | >1666.7 | >636.9 | >44.2
4 | Cc1cn2cc(-c3ccc(N4CCC(N)CC4)nc3C(C)C)cc(C)c2n1 [Example 4, 1-[5-(2,8-dimethylimidazo[1,2-a]pyridin-6-yl)-6-isopropyl-2-pyridyl]piperidin-4-amine] |  | > 10 | 4.21 | 471.9 | 1448.2 | 27.2

Continued, in another order:

Row | IC50 (TLR7 and TLR8) [nM] | Compound | IC50 (hERG channel) [µM] | IC20 (hERG channel) [µM] | hERG IC20/TLR7 IC50 (hERG channel) | hERG IC20/TLR8 IC50 (hERG channel) | hERG IC20/TLR9 IC50 (hERG channel)
5 | 16 | Cc1cn2cc(-c3ccc(N4CCC(N5CC(C)(N)C5)CC4)nc3C(F)F)cc(C)c2n1 [Example 12, 1-[1-[6-(difluoromethyl)-5-(2,8-dimethylimidazo[1,2-a]pyridin-6-yl)-2-pyridyl]-4-piperidyl]-3-methyl-azetidin-3-amine] |  |  |  |  | 
6 | 4.5 | COc1nc(N2CCC(N3CCNCC3)CC2)ccc1-c1cc(C)c2nccn2c1 [Example 25, 6-[2-methoxy-6-(4-piperazin-1-yl-1-piperidyl)-3-pyridyl]-8-methyl-imidazo[1,2-a]pyridine] | > 20 | 5.78 | 837.6 | 516.0 | 62.8
